Laboratory results from patent US9279806B2, “Water-soluble AIE luminogens for monitoring and retardation of fibrillation of amyloid proteins” (THE HONG KONG UNIVERSITY OF SCIENCE AND TECHNOLOGY, priority 2005, dated 2016).

Experiments:
[1] = test system: ctDNA/RNA from torula yeast/BSA; test: Fluorescence increments / binding isotherm with ctDNA, RNA and BSA; details: dye 5 μM
Procedure: FIG. 8 illustrates increments of fluorescence of TPE-C2N^+ (8), N+C2-TPE-C2N^+ (9), TPE-C4N^+ (10), N+C4-TPE-C4N^+ (11) when binding with 10 μg/ml ctDNA/10 μg/ml RNA diethylaminoethanol (DEAE) salt from torula yeast/10 μg/ml RNA from torula yeast in buffer solution pH=7. Concentration of dyes: 5 μM; excitation wavelength: 350 nm. The four cationic TPE derivatives display larger FL enhancement in the presence of DNA than that of RNA.
FIG. 9 illustrates the binding isotherm of N+C2-TPE-C2N^+ (5 μM) to ctDNA/RNA from torula yeast/BSA (plot of the fluorescence intensity at 470 nm for ctDNA/RNA, and at 467 nm for BSA) in aqueous phosphate buffer (pH=7.0).

G1 [2] = test: PAGE assay of G1, gel poststaining; design: species or system human; details: gel poststained with 10 μM TTAPE for 5 min
Procedure: The FL “turn-on” switching of TTAPE by binding to G1 strand inspires us to check whether it can be used as a DNA marker in the PAGE assay. Electrophoresis assay of G1 was performed on a Hoefer miniVE system in 1xTBE buffer under nondenaturing conditions using a 20% native poly(acrylamide) gel at 100V for 3 h at […]. An AlphaDigiDoc™ system with a DE-500 MultiImage™ II light cabinet and an ML-26 UV transilluminator (Alpha Innotech) was used for data collection and analysis. The gel was poststained with a 10 μM TTAPE solution for 5 min at room temperature, rinsed with distilled water, and photographed under UV light at 290-330 nm by the gel documentation system. EB was used to poststain the gel in parallel for comparison. Concentrations of G1 in the range of 0.5-10.0 μM were used to check the visualizability of the dye-stained DNA in the PAGE assay.
After running PAGE of G1 in a Tris-borate-ethylene-diaminetetraacetic acid (TBE) buffer, the gel is stained by a TTAPE solution for 5 min. […] Ethidium bromide (EB) is a widely used visualization agent for PAGE assay. […] The G1 bands are not visualized until the gel has been stained by EB for as long as 30 min. Band visualization by EB is usually realized by its intercalation into the hydrophobic region of DNA, which makes the staining a slow process. […]

G-quadruplex of G1 = test: Isothermal titration calorimetry (ITC); type: binding, human
Procedure: It is clear that TTAPE is highly affinitive to K^+-containing G-quadruplex but not its Na^+ cousin. Isothermal titration calorimetry (ITC) measurements are performed, in an effort to understand the thermodynamic basis for the binding affinity difference. ITC is a sensitive technique for the studies of bimolecular processes and can provide direct information about binding affinities and associated thermodynamic parameters. A calorimetric titration experiment was performed at 25.00±0.01° C. on a MicroCal VP-ITC apparatus. G1 solutions for the ITC experiments were prepared in all-potassium (K-Tris: 5 mM Tris-HCl and 150 mM KCl) or all-sodium (Na-Tris: 5 mM Tris-HCl and 150 mM NaCl) buffer at pH 7.50, as required. The buffer solution of G1 was heated to 85° C. and cooled slowly to ensure the folding of the DNA into G-quadruplex structure. For a typical titration, a series of 10 μL aliquots of TTAPE solution were injected into the G1/M^+ solution at a 240 s interval. The heat for each injection was determined by the integration of the peak area in the thermogram with respect to time. Blank titration was conducted by injecting TTAPE into the sample cell containing only buffer under the same condition. The interaction heat was corrected by subtracting the blank heat from that for the TTAPE/G1 titration. The kb values were derived by fitting the isotherm curves with Origin 5.0 software.

G1 [3] = test: Time-dependent FL of G1 folding; type: biochemical, human
Procedure: Time-dependent FL was measured on a FluostarOptima multifunctional microplate reader (BMG Labtechnologies) with λex/λem set at 350/470 nm. To gain insight into dynamics of the folding process of G1, time-dependent FL measurements are performed. Solutions containing TTAPE and G1 are first incubated for 30 min to ensure complete dye/DNA complexation and transferred to a 96-well microtiter plate after incubation. Appropriate amounts of metal ions were added by an automatic injection mode. Kinetic measurements were performed at 20° C. and the FL data were recorded in every 4 s. The change in the emission intensity (1) of the solution after the addition of K^+ can be fitted by a second-order exponential curve: I=A1e^−t/τ1+A2e^−t/τ2+c Eq. (1) where t is the time, τ1 and r2 are the time constants of FL recovery, A^1 and A^2 are the respective amplitudes (the folding process is characterized by negative A values), and c is the FL intensity at t=infinity. Mean time constant (<τ>) was calculated according to eq. 2:
In one embodiment, a solution of potassium chloride is then injected at time t=0 (automatic injection mode) and the emission intensity at 470 nm is monitored. The emission drops abruptly to ˜30% of its original intensity at the beginning but starts to recover after ˜8 s and finally reaches a plateau at ˜320 s (FIG. 42). […]

HG21 DNA = test: CD spectra: G-quadruplex induction by TPE derivatives; type: biochemical; details: 9 μM DNA, 4.5 μM TPE derivative, Tris-HCl pH 7.5, 25 °C
Procedure: [TPE]=4.5 μM; [HG21]=9 μM and [K^+]=0.5 M.
CD spectral profiles of 9 μM DNA in 5 mM Tris-HCl buffer solutions (pH 7.5) incubated under 25° C. with four different TPE derivatives at 4.5 μM or with 0.5M K^+ ions are studied (FIG. 77). TPE derivatives 1-4 are TTAPE (Example 6), TPE-2 (chemical structure is not shown herein), TPE-3 (chemical structure is not shown herein) and TPE-C2N+ (Example 3), respectively. […] On the other hand, DNA incubated with TTAPE or the known quadruplex inducer; K^+ ions have very similar spectral profiles, while the ellipticities of DNA/TTAPE are somehow weaker than DNA/K^+.

- Variety of FL in presence of DNA and RNA compared with TPE-C2N+ and TPE-C4N+ ([1]; 10 μg/ml ctDNA or RNA): much larger variety of FL
- Binding constant (G-quadruplex of G1; Na+ titration (Na-Tris)): too small to be determined accurately
SMILES: CC[N+](CC)(CC)CCOc1ccc(C(=C(c2ccc(OCC[N+](CC)(CC)CC)cc2)c2ccc(OCC[N+](CC)(CC)CC)cc2)c2ccc(OCC[N+](CC)(CC)CC)cc2)cc1.[Br-].[Br-].[Br-].[Br-] [TTAPE, 1,1,2,2-tetrakis[4-(2-triethylammonioethoxy)phenyl]ethene tetrabromide]
- Relative affinity to DNA, RNA and proteins ([1]; aqueous phosphate buffer pH 7.0): larger affinity to DNA than to RNA and proteins
- Detectable G1 concentration (sensitivity test) (G1 [2]): 0.5 µM
- Gibbs energy (ΔG°) (G-quadruplex of G1; G1/K+ buffer, 25 °C): -7.3 kcal/mol
- Weighted mean time constant (<τ>) of FL recovery (G1 [3]; K+ 0.5 M injected into TTAPE/G1, 470 nm, 20 °C): 116 s
- Time at which recovered emission reaches a plateau (G1 [3]; K+ injected into TTAPE/G1, 470 nm): ~320 s
- G-quadruplex induction (CD spectral profile) (HG21 DNA): acts as an internal quadruplex inducer under 25 °C
